From patent publication US20190322676A1, “CERAMIDE GALACTOSYLTRANSFERASE INHIBITORS FOR THE TREATMENT OF DISEASE” (BioMarin Pharmaceutical Inc., priority 2016, published 2019) come the findings set out here.

The experiment concerns the target T1, human CGT (ceramide galactosyltransferase), CHO/CGT lysate (Homo sapiens, UniProt Q16880).
T1 construct: Full-length human CGT cDNA was cloned into the BamH1/Xho1 site of pcDNA3.1 (+); expressed in transfected cells; host or cells: Chinese hamster ovary (CHO) cells; lysate prepared with M-PER
T1 sequence (Q16880 21-541): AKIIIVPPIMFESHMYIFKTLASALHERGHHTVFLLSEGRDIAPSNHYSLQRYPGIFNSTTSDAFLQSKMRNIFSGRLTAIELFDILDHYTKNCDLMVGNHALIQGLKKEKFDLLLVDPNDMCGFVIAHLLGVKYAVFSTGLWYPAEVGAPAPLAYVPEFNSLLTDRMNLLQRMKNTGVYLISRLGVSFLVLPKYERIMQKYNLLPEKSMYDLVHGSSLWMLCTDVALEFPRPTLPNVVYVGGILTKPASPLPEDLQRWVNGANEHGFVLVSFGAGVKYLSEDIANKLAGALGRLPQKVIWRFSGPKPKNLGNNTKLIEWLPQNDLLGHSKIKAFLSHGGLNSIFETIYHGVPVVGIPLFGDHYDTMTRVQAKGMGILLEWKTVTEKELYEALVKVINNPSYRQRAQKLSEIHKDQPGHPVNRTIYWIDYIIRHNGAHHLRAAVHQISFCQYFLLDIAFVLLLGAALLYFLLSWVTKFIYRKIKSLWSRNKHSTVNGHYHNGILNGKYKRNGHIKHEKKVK
In words: CGT enzyme assay, RapidFire/MS/MS readout (Table 1 ranges with one asterisk *). As to conditions: RapidFire method (range with one asterisk *). The format is biochemical. The method, then: Full-length human CGT cDNA was cloned into the BamH1/Xho1 site of pcDNA3.1 (+) mammalian expression vector (V90-20, Invitrogen, Carlsbad, Calif.) and the plasmid was transfected into Chinese hamster ovary (CHO) cells. Lysate was prepared using M-PER (Mammalian Protein Extraction Reagent, ThermoFisher Scientific, Grand Island, N.Y.) in the presence of a protease inhibitor cocktail (P8340, Sigma, Saint Louis, Mo.). Each 100 mm dish (100% confluent, approximately 1×10^7 cells) was lysed with 250 μL of M-PER containing protease inhibitors. Protein concentration was determined using a Pierce BCA protein assay kit (ThermoFisher Scientific). Four micrograms of CHO/CGT lysate was incubated with various concentrations of a compound (0.001 μM-50 μM) in 10 mM HEPES (pH 7.2) containing 35 μM dioleoylphosphatidylcholine, 5 mM MgCl2, 5 mM MnCl2, 1% BSA, 15 mM KCl, 1 mM EGTA, 8 mM CHAPS, 10 μM C6-NBD-dihydro-ceramide and 17.5 μM UDP-galactose in a final reaction volume of 20 μL at 37° C. for 1 hour. The final concentration of DMSO was 0.5% in both compound-treated and mock-treated samples. Tween 80 (0.01%) was optionally added to the reaction mixture to help solubilize the compounds. Each individual reaction was diluted with 80 μL of methanol:acetronitrile (1:3) containing 5 μM N-docdecanoyl-NBD-galactosylceramide (internal standard) to stop the reaction. 200 μL H2O:acetonitile (1:1) was added to precipitate the protein. After sufficient mixing, the plates were centrifuged at 2469 g for 38 minutes, 200 μL of supernatant was transferred to a LC/MS 96-deep well plate and a second spin was performed at 2469 g for 10 minutes. The final supernatant was injected in triplicate for RapidFire/MS/MS analysis.
Quantitative Analysis Using the RapidFire/MS/MS Method:
The quantitative analysis of C6-NBD-dihydro-ceramide and C6-NBD-dihydro-galactosylceramide was performed on a Rapid Fire 360 high-throughput mass spectrometry system (Agilent Technologies, Palo Alto, Calif.) coupled with a API4000^+ triple quadrupole mass spectrometer (Applied Biosystems, Concord, Ontario, Canada). RapidFire software packages, including RapidFire Control panel, RapidFire UI and RapidFire Integrator (Agilent Technologies), were used to control the RapidFire instrument and to process data. Analyst 1.6.2 software packages (Applied Biosystems) were used to control the MS system and acquire MS data. […] of sample was loaded on a micro-scale C4 solid-phase extraction (SPE) cartridge (Agilent Technologies) and salts were removed using water supplemented with 0.1% formic acid at the flow rate of 1.5 mL/min for 3 sec. C6-NBD-dihydro-ceramide and C6-NBD-dihydro-galactosylceramide were co-eluted into the mass spectrometer using acetonitrile containing 0.1% formic acid at the flow rate of 1.0 mL/min for 3 sec. The total cycle time of one injection was 8 secs. The MS/MS detection was performed in ESI negative mode. The mass transition of C6-NBD-dihydro-galactosylceramide was m/z 752.6→678.6 using a −40 V collision energy, the mass transition of C6-NBD-dihydro-ceramide was m/z 590.6→115.8 using a −40 V collision energy and the mass transition of N-docdecanoyl-NBD-galactosylceramide was m/z 820.9→746.3 using a −45 V collision energy.
The C6-NBD-dihydro-galactosylceramide reading was normalized first by dividing the peak area of C6-NBD-dihydro-galactosylceramide by the peak area of the internal standard, N-docdecanoyl-NBD-galactosylceramide. IC50 values (see Table 1, where data ranges with one asterix (*) correspond to analysis using the RapidFire/MS/MS method, and data ranges with two asterixes (**) correspond to analysis using the RapidFire/MS/MS method with 0.01% Tween added) were generated from sigmoidal dose-response curves (variable slope) with GraphPad Prism software (GraphPad Software, Inc., San Diego, Calif.) using the normalized peak areas of C6-NBD-dihydro-galactosylceramide or the percent inhibition of C6-NBD-dihydro-galactosylceramide accumulation relative to DMSO control. […]

Each structure is given as a SMILES string. Structures can show the parent of a compound that is named as a salt.

Consider `NC1CC2CCC(C1)N2C(=O)[C@@H](NS(=O)(=O)c1ccc(OCC2CCCCC2)cc1)C(F)(F)c1ccc2cc(Br)ccc2c1` (stereo partly drawn) [Compound 40-1, N-((2R)-3-(3-amino-8-azabicyclo[3.2.1]octan-8-yl)-1-(6-bromonaphthalen-2-yl)-1,1-difluoro-3-oxopropan-2-yl)-4-(cyclohexylmethoxy) benzenesulfonamide trifluoroacetate], for which the IC50 lay in the range of 1 to 10 µM.
In the case of `NC1CC2CCC(C1)N2C(=O)[C@H](NS(=O)(=O)c1ccc(OCC2CCCCC2)cc1)C(F)(F)c1ccc2cc(Br)ccc2c1` (stereo partly drawn) [Compound 40-2, N-((2S)-3-(3-amino-8-azabicyclo[3.2.1]octan-8-yl)-1-(6-bromonaphthalen-2-yl)-1,1-difluoro-3-oxopropan-2-yl)-4-(cyclohexylmethoxy)benzenesulfonamide trifluoroacetate] it was 10 to 30 µM.
In the case of `NC1CC2CCC(C1)N2C(=O)[C@@H](NC(=O)[C@@H](O)c1ccc2cc(OC3CCCC3)ccc2c1)C(F)(F)c1ccc(Br)cc1` (stereo partly drawn) [Compound 41-3, (2S)—N-((2R)-3-(3-amino-8-azabicyclo[3.2.1]octan-8-yl)-1-(4-bromophenyl)-1,1-difluoro-3-oxopropan-2-yl)-2-(6-(cyclopentyloxy)naphthalen-2-yl)-2-hydroxyacetamide trifluoroacetate] it was 1 to 10 µM; in that of `NC1CC2CCC(C1)N2C(=O)[C@H](NC(=O)[C@H](O)c1ccc2cc(OC3CCCC3)ccc2c1)C(F)(F)c1ccc(Br)cc1` (stereo partly drawn) [Compound 41-4, (2R)—N-((2S)-3-(3-amino-8-azabicyclo[3.2.1]octan-8-yl)-1-(4-bromophenyl)-1,1-difluoro-3-oxopropan-2-yl)-2-(6-(cyclopentyloxy)naphthalen-2-yl)-2-hydroxyacetamide trifluoroacetate], 30 to 100 µM; in that of `NC1CC2CCC(C1)N2C(=O)[C@@H](NC(=O)[C@H](O)c1ccc2cc(OC3CCCC3)ccc2c1)C(F)(F)c1ccc(Br)cc1` (stereo partly drawn) [Compound 41-5, (2R)—N-((2R)-3-(3-amino-8-azabicyclo[3.2.1]octan-8-yl)-1-(4-bromophenyl)-1,1-difluoro-3-oxopropan-2-yl)-2-(6-(cyclopentyloxy)naphthalen-2-yl)-2-hydroxyacetamide trifluoroacetate], 10 to 30 µM.
As for `NC1CC2CCC(C1)N2C(=O)[C@H](NC(=O)[C@@H](O)c1ccc2cc(OC3CCCC3)ccc2c1)C(F)(F)c1ccc(Br)cc1` (stereo partly drawn) [Compound 41-6, (2S)—N-((2S)-3-(3-amino-8-azabicyclo[3.2.1]octan-8-yl)-1-(4-bromophenyl)-1,1-difluoro-3-oxopropan-2-yl)-2-(6-(cyclopentyloxy)naphthalen-2-yl)-2-hydroxyacetamide trifluoroacetate], the figure is 30 to 100 µM; as for `NC1CC2CCC(C1)N2C(=O)[C@@H](NS(=O)(=O)c1ccc2cc(OC3CCCC3)ccc2c1)C(F)(F)c1ccc(I)cc1` (stereo partly drawn) [Compound 42-1, N-((2R)-3-(3-amino-8-azabicyclo[3.2.1]octan-8-yl)-1,1-difluoro-1-(4-iodophenyl)-3-oxopropan-2-yl)-6-(cyclopentyloxy)naphthalene-2-sulfonamide trifluoroacetate], < 1 µM; as for `NC1CC2CCC(C1)N2C(=O)[C@H](NS(=O)(=O)c1ccc2cc(OC3CCCC3)ccc2c1)C(F)(F)c1ccc(I)cc1` (stereo partly drawn) [Compound 42-2, N-((2S)-3-(3-amino-8-azabicyclo[3.2.1]octan-8-yl)-1,1-difluoro-1-(4-iodophenyl)-3-oxopropan-2-yl)-6-(cyclopentyloxy) naphthalene-2-sulfonamide trifluoroacetate], 1 to 10 µM.
With `NC1CCN(C(=O)[C@@H](NS(=O)(=O)c2ccc3cc(OC4CCCC4)ccc3c2)C(F)(F)c2ccc(-c3ccccc3)cc2)CC1` [Compound 43-1, (R)—N-(1-([1,1′-biphenyl]-4-yl)-3-(4-aminopiperidin-1-yl)-1,1-difluoro-3-oxopropan-2-yl)-6-(cyclopentyloxy)naphthalene-2-sulfonamide], the IC50 was < 1 µM.

The term IC50 denotes the midpoint of a concentration-inhibition curve. A higher IC50 goes with weaker potency in that assay.
